The assay addresses T1, KCNQ2/3 channels (Homo sapiens, UniProt O43525+O43526).
T1 construct: expressed in transfected cells
The assay is described as follows: Fluorescence assay using a voltage sensitive dye (fluorimetry). In kind it is cell-based. The following applies: CHO-K1 cells expressing KCNQ2/3 channels; for EC50: agonistic activity; for Emax: retigabine 50 μM = 100%, read-out: Fluorimetry % efficacy (retigabine 50 μM = 100%). The method, boiled down:
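CHO-K1 cells expressing human KCNQ2/3, loaded 45 min with red membrane-potential dye in ES buffer pH 7.4 (1 mM KCl), compound 30 min at room temperature. Fluorescence (525/560 nm) read before (F1) and at peak after KCl to 92 mM final (F2); agonism from F2/F1 change, EC50 fitted.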

Experimental findings from patent US8586755B2, “Substituted nicotinamides as KCNQ2/3 modulators” (Grünenthal GmbH, priority 2009, dated 2013) are described below.

Usually EC50 stands for the concentration needed to bring the measured effect to its halfway point. Read a high EC50 as a less potent agent.

For the compound `COc1cccc(CNC(=O)c2cccnc2SCCCc2ccc(F)cc2)c1` [compound 77, 2-[3-(4-Fluorophenyl)-propylsulfanyl]-N-[(3-methoxyphenyl)-methyl]-pyridine-3-carboxylic acid amide], the midpoint of the response, the EC50, lay at 233 nM and the Emax stood at 118%. Consider `O=C(NCCc1ccccc1)c1cccnc1SCCCc1ccc(F)cc1` [compound 78, 2-[3-(4-Fluorophenyl)-propylsulfanyl]-N-phenethyl-pyridine-3-carboxylic acid amide], for which the midpoint of the response, the EC50, lay at 319 nM and the Emax amounted to 53%.

Take `O=C(NCc1ccc(OC(F)(F)F)cc1)c1cccnc1SCCCc1ccc(F)cc1` [compound 79, 2-[3-(4-Fluorophenyl)-propylsulfanyl]-N-[[4-(trifluoromethyloxy)-phenyl]-methyl]-pyridine-3-carboxylic acid amide]: the response was half-maximal at 101 nM (EC50) and the Emax worked out at 103%. As to `O=C(NCc1ccc(C(F)(F)F)cc1)c1cccnc1SCCCc1ccc(F)cc1` [compound 80, 2-[3-(4-Fluorophenyl)-propylsulfanyl]-N-[[4-(trifluoromethyl)-phenyl]-methyl]-pyridine-3-carboxylic acid amide], a half-maximal response (EC50) required 77 nM and the Emax was found to be 104%. In the case of `O=C(NCCc1cccnc1)c1cccnc1SCCCc1ccc(F)cc1` [compound 81, 2-[3-(4-Fluorophenyl)-propylsulfanyl]-N-(2-pyridine-3-yl-ethyl)-pyridine-3-carboxylic acid amide], the EC50 was 8020 nM and the Emax came to 89%.

`O=C(NCCc1ccccn1)c1cccnc1SCCCc1ccc(F)cc1` [compound 82, 2-[3-(4-Fluorophenyl)-propylsulfanyl]-N-(2-pyridine-2-yl-ethyl)-pyridine-3-carboxylic acid amide]: it took 6460 nM to reach a half-maximal effect (EC50) and the Emax came out at 96%. In the case of `O=C(NCc1ccccc1O)c1cccnc1SCCCc1ccc(F)cc1` [compound 83, 2-[3-(4-Fluorophenyl)-propylsulfanyl]-N-[(2-hydroxyphenyl)-methyl]-pyridine-3-carboxylic acid amide], the EC50 was 139 nM and the Emax was determined as 171%. For `O=C(NCc1cccc(O)c1)c1cccnc1SCCCc1ccc(F)cc1` [compound 84, 2-[3-(4-Fluorophenyl)-propylsulfanyl]-N-[(3-hydroxyphenyl)-methyl]-pyridine-3-carboxylic acid amide], the EC50 is 3510 nM and the Emax stood at 55%. As for `Cc1cccc(CCNC(=O)c2cccnc2SCCCc2ccc(F)cc2)c1` [compound 85, 2-[3-(4-Fluorophenyl)-propylsulfanyl]-N-[2-(m-tolyl)-ethyl]-pyridine-3-carboxylic acid amide], a half-maximal effect (EC50) was put at 394 nM and the Emax was determined as 59%. In the case of `Cc1ccccc1CCNC(=O)c1cccnc1SCCCc1ccc(F)cc1` [compound 86, 2-[3-(4-Fluorophenyl)-propylsulfanyl]-N-[2-(o-tolyl)-ethyl]-pyridine-3-carboxylic acid amide], the Emax is 26%. For `O=C(NCc1cccc(OC(F)(F)F)c1)c1cccnc1SCCCc1ccc(F)cc1` [compound 87, 2-[3-(4-Fluorophenyl)-propylsulfanyl]-N-[[3-(trifluoromethyloxy)-phenyl]-methyl]-pyridine-3-carboxylic acid amide], it took 101 nM to reach a half-maximal effect (EC50) and the Emax turned out to be 116%. In the case of `O=C(NCc1ccc(O)cc1)c1cccnc1SCCCc1ccc(F)cc1` [compound 88, 2-[3-(4-Fluorophenyl)-propylsulfanyl]-N-[(4-hydroxyphenyl)-methyl]-pyridine-3-carboxylic acid amide], the EC50 stood at 3760 nM and the Emax worked out at 53%. For `O=C(NCCc1ccncc1)c1cccnc1SCCCc1ccc(F)cc1` [compound 89, 2-[3-(4-Fluorophenyl)-propylsulfanyl]-N-(2-pyridine-4-yl-ethyl)-pyridine-3-carboxylic acid amide], the EC50 worked out at 5450 nM and the Emax was 72%. `Cc1ccc(CCNC(=O)c2cccnc2SCCCc2ccc(F)cc2)cc1` [compound 90, 2-[3-(4-Fluorophenyl)-propylsulfanyl]-N-[2-(p-tolyl)-ethyl]-pyridine-3-carboxylic acid amide]: the Emax was found to be 37%. Regarding `CC(CCSc1ncccc1C(=O)NCC1CC2CCC1C2)c1ccc(F)cc1` (stereo not drawn) [compound 91, N-(5-Bicyclo[2.2.1]heptanyl-methyl)-2-[3-(4-fluorophenyl)-butylsulfanyl]-pyridine-3-carboxylic acid amide], the EC50 came to 184 nM and the Emax stood at 241%. On to `O=C(NCC1CC2CCC1C2)c1cccnc1SCCCc1cc(F)c(F)cc1F` (stereo not drawn) [compound 92, N-(5-Bicyclo[2.2.1]heptanyl-methyl)-2-[3-(2,4,5-trifluoro-phenyl)-propylsulfanyl]-pyridine-3-carboxylic acid amide], for which it took 138 nM to reach a half-maximal effect (EC50) and the Emax stood at 270%. Turning to `O=C(NCCCc1ccccn1)c1cccnc1SCCCc1ccc(F)cc1` [compound 93, 2-[3-(4-Fluorophenyl)-propylsulfanyl]-N-(3-pyridine-2-yl-propyl)-pyridine-3-carboxylic acid amide], the EC50 is 2810 nM and the Emax worked out at 154%. In the case of `O=C(NCCCc1cccnc1)c1cccnc1SCCCc1ccc(F)cc1` [compound 94, 2-[3-(4-Fluorophenyl)-propylsulfanyl]-N-(3-pyridine-3-yl-propyl)-pyridine-3-carboxylic acid amide], the response was half-maximal at 2210 nM (EC50) and the Emax was determined as 181%. For `O=C(NCCCc1ccncc1)c1cccnc1SCCCc1ccc(F)cc1` [compound 95, 2-[3-(4-Fluorophenyl)-propylsulfanyl]-N-(3-pyridine-4-yl-propyl)-pyridine-3-carboxylic acid amide], in that order: 2060 nM and 147%.

With `CCCNC(=O)c1cccnc1SCCCc1ccc(F)cc1` [compound 96, 2-[3-(4-Fluorophenyl)-propylsulfanyl]-N-propyl-pyridine-3-carboxylic acid amide], the EC50 was 660 nM and the Emax is 194%. On the same counts, the results for `CCCCNC(=O)c1cccnc1SCCCc1ccc(F)cc1` [compound 97, N-Butyl-2-[3-(4-fluorophenyl)-propylsulfanyl]-pyridine-3-carboxylic acid amide] are 134 nM and 196%. For the compound `O=C(NCc1cccs1)c1cccnc1SCCCc1cccnc1` [compound 98, 2-(3-Pyridin-3-yl-propylsulfanyl)-N-(thiophen-2-yl-methyl)-pyridine-3-carboxylic acid amide], the Emax is 29%.

For the compound `Cc1ccc(CCCSc2ncccc2C(=O)NCc2cccs2)cc1` [compound 99, 2-[3-(p-Tolyl)-propylsulfanyl]-N-(thiophen-2-yl-methyl)-pyridine-3-carboxylic acid amide], the EC50 was found to be 178 nM and the Emax stood at 70%. In the case of `O=C(NCc1cccs1)c1cccnc1SCCCCc1ccccc1` [compound 100, 2-(4-Phenyl-butylsulfanyl)-N-(thiophen-2-yl-methyl)-pyridine-3-carboxylic acid amide], the response was half-maximal at 1590 nM (EC50) and the Emax worked out at 48%.
